The values that follow come from paper PMC6385087, “New Multitarget Hybrids Bearing Tacrine and Phenylbenzothiazole Motifs as Potential Drug Candidates for Alzheimer’s Disease” (Molecules, 2019).

In data set [1] the target is T1, Aβ1–42 self-aggregation (Homo sapiens, UniProt P05067).
T1 construct: Commercially available Aβ1-42 peptide was obtained from Aldrich; purchased Aldrich
Description: Aβ1–42 self-aggregation inhibition, thioflavin T fluorescence assay. In kind it is biochemical. The note with it: self-mediated Aβ42 aggregation, ThT fluorescence, CL = 40 μM, means of two experiments; for inhibition at 40 µM: read-out: Inhibition of Aβ-self-aggregation (%). On the procedure: […]. Since the compounds of this series presented some solubility problems in methanol, the assays were performed with ligands at concentrations of 40 µM, i.e., half of the concentration usually used (80 µM) in these assays. […]. […] So, it appears that introduction of a chloro substituent in TAC and/or a hydroxyl group in the carbon linker are not well suited for the interaction with β-sheet secondary structure of Aβ aggregates. […].
Commercially available Aβ1-42 peptide was obtained from Aldrich and stored at −20 °C. It was treated with 1,1,1,3,3,3-hexafluoropropan-2-ol (HFIP) to avoid self-aggregation and reserved. HFIP pre-treated Aβ1–42 samples were re-dissolved in CH3CN/Na2CO3 (300 µM)/NaOH (250 µM) (48.3:48.3:4.3, v/v/v) solvent mixture in order to have a stable stock solution; this solution (500 µM) was further diluted in phosphate buffer (0.215 M, pH 8.0) to obtain 40 µM solution. The ligand, which was previously dissolved in methanol, was further diluted in phosphate buffer to a final concentration of 40 µM. Aβ1–42 aggregation was determined by measuring the fluorescence emission of Thioflavin T dye, with a Cary Eclipse Varian fluorimeter (Molecular Devices, San José, CA, USA).
After incubation for 24 h at 37 °C, without stirring, the samples were added to a 96-well plate (BD Falcon) with 180 µL of 5 µM ThT in 50 mM glycine-NaOH (pH 8.5) buffer. Blank samples were prepared for each concentration in a similar way, devoid of peptide. As for the control, a sample of the peptide was incubated under identical conditions but without the inhibitor. After 5-min incubation with the dye, the ThT fluorescence was measured at the following wavelengths: 446 nm (excitation) and 486 nm (emission). The percent inhibition of the self-induced aggregation due to the presence of the test compound was calculated by Equation (2), in which IFi and IF0 corresponded to the fluorescence intensities, in the presence and the absence of the test compound, minus the fluorescence intensities due to the respective blanks. I% = 100 − (IFi/IF0 × 100)(2)
The reported values were obtained as the mean ± S.E.M. of two different experiments.

Data set [2] has as its system SH-SY5Y cells. Description: Neuroprotection against Aβ1–42 induced toxicity, MTT reduction. Conditions: Aβ1-42 1 μM, 24 h after 1 h pre-treatment, compounds: 16 2.5 µM, 17 0.5 µM, 14 and 15 0.2 µM, 19 and 18 1 µM. Type of data set: cell-based, human. As for the experimental part:
(§1) The neuroprotective effect of TAC-PhBTA conjugates was evaluated using SH-SY5Y cells treated with Aβ1–42 peptides or ascorbate/iron. For each compound, a dose-response curve was performed to select a non-toxic concentration in order to analyze its neuroprotective effect (Figure 3).
SH-SY5Y human neuroblastoma cell line (ATCC-CRL-2266) grown in Dulbecco’s modified Eagle’s medium (DMEM) obtained from Gibco-Invitrogen (Life Technologies Ltd., Liverpool, UK) with 10% heat inactivated fetal calf serum, containing 50 U/mL penicillin, and 50 μg/mL streptomycin, under a humidified atmosphere of 95% air-5% CO2 at 37 °C. Cells were plated at 0.12 × 10^6 cells/mL for cell viability assay. The tested compounds (16, 17, 14, 15, 19 and 18) were dissolved in DMSO at a concentration of 25 mM and aliquots were stored at −20 °C. We performed a dose-response screening (from 0.2 μM to 5 μM) in order to choose the highest non-toxic concentration. As a result we selected a 2.5 μM final concentration for compound 16; 0.5 μM final concentration for compound 17; 0.2 μM final concentration for compounds 14 and 15; and a 1 μM final concentration for compounds 19 and 18. […] The compounds were added to the cell media 1 h before the incubation with Aβ1–42 or ferrous sulfate/L-ascorbic acid. Aβ1–42 or ferrous sulfate/L-ascorbic acid where incubated alone or with the compound for an additional 24 h. Aβ1–42 was prepared as 276.9 μM stock in sterile water and added to the medium at 1 μM final concentration. Ferrous sulfate was freshly prepared as 0.36 M stock in water and added to the medium at 500 μM final concentration. L-Ascorbic Acid was freshly prepared as 80 mM stock in water and added to the medium at 5 mM final concentration. […]
(§2) Cell viability was determined by a MTT (3-(4,5-dimethylthiazol-2-yl)-2,5-diphenyltetrazolium bromide) reduction test. […] The absorbance was measured at 570 nm. Cell reduction ability was expressed as a percentage of untreated control cells.
(§3) All data were expressed as mean ± S.E.M. of at least three independent experiments performed in duplicates. […]

The nature of data set [3]: Solubility in methanol. Type of data set: physicochemical.
The subject of data set [4] is SH-SY5Y cells. The experiment in a line: Neuroprotection against ferrous sulfate/L-ascorbic acid toxicity, MTT reduction. In kind it is cell-based, human. The note with it: Fe/Asc 500 μM/5 mM, 24 h after 1 h pre-treatment, compounds: 16 2.5 µM, 17 0.5 µM, 14 and 15 0.2 µM, 19 and 18 1 µM. As for the experimental part:
as §1
SH-SY5Y human neuroblastoma cell line (ATCC-CRL-2266) grown in Dulbecco’s modified Eagle’s medium (DMEM) obtained from Gibco-Invitrogen (Life Technologies Ltd., Liverpool, UK) with 10% heat inactivated fetal calf serum, containing 50 U/mL penicillin, and 50 μg/mL streptomycin, under a humidified atmosphere of 95% air-5% CO2 at 37 °C. Cells were plated at 0.12 × 10^6 cells/mL for cell viability assay. The tested compounds (16, 17, 14, 15, 19 and 18) were dissolved in DMSO at a concentration of 25 mM and aliquots were stored at −20 °C. We performed a dose-response screening (from 0.2 μM to 5 μM) in order to choose the highest non-toxic concentration. […]
as §2, §3
(Tetrazolium dyes change colour on reduction, which living cells bring about.)

Entries after “also recorded” stand apart in the source; their conditions may differ.

T1 sequence (P05067 672-713 limits assumed): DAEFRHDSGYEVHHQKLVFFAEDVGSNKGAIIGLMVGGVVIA

As usually defined, the inhibition is the change of the read-out against control, counted positive when it falls. Take `COc1cc(-c2nc3ccccc3s2)ccc1OCC(=O)NCCNc1c2c(nc3cc(Cl)ccc13)CCCC2` [compound 15, 2-(4-(Benzo[d]thiazol-2-yl)-2-methoxyphenoxy)-N-(2-((6-chloro-1,2,3,4 tetrahydroacridin-9-yl)amino)ethyl)acetamide]: the inhibition at 40 µM in data set [1] was 27%. The “Prevention of Aβ-induced cell toxicity (cell viability, MTT)” value (shortened to “Prevention of Aβ-induced cell toxicity”) in data set [2] is on record as “capacity to prevent Aβ-induced toxicity; also recorded: prevented Aβ-induced cell toxicity”.
Regarding `COc1cc(-c2nc3ccccc3s2)ccc1OCC(=O)NCC(O)CNc1c2c(nc3cc(Cl)ccc13)CCCC2` (stereo not drawn) [compound 19, 2-(4-(Benzo[d]thiazol-2-yl)-2-methoxyphenoxy)-N-(3-((6-chloro-1,2,3,4-tetrahydroacridin-9-yl)amino)-2-hydroxypropyl)acetamide], the “Inhibition of Aβ-self-aggregation (%)” value in data set [1] (40 µM) worked out at 31.3%. In addition, in data set [1], the inhibition at 40 µM was around 31%. Further, the “Prevention of Aβ-induced cell toxicity” value in data set [2] is “capacity to prevent Aβ-induced toxicity; also recorded: prevented Aβ-induced cell toxicity”.
As for `COc1cc(-c2nc3ccccc3s2)ccc1OCC(=O)NCCCNc1c2c(nc3ccccc13)CCCC2` [compound 16, 2-(4-(Benzo[d]thiazol-2-yl)-2-methoxyphenoxy)-N-(3-((1,2,3,4-tetrahydroacridin-9-yl)amino)propyl)acetamide], in data set [1], the inhibition at 40 µM turned out to be 33.7%. In addition, the Solubility in methanol entry in data set [3] is “soluble in methanol”. Moreover, the “Neuroprotective effect against Asc/Fe toxicity (cell viability, MTT)” value in data set [4] was “statistical significant neuroprotective effect”. The “Prevention of Aβ-induced cell toxicity” value in data set [2] is reported as “capacity to prevent Aβ-induced toxicity; also recorded: prevented Aβ-induced cell toxicity”.
